Test results from PubChem BioAssay (NCI).
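Dose response: 5 concentrations. Exposure: 48 h. Format: 96-well plates. Endpoint: linear interpolation; highest concentration if not reached. TGI denotes the concentration required for complete inhibition of growth.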

What was measured:
Assay in all cases: NCI tumour cell line growth inhibition, 48 h
SF-539 CNS = tested on: SF-539 CNS
SW-620 colon = tested on: SW-620 colon
LOX IMVI melanoma = tested on: LOX IMVI melanoma
NCI-H23 lung = tested on: NCI-H23 lung
RPMI-8226 leukemia = tested on: RPMI-8226 leukemia
MDA-N = tested on: MDA-N
IGROV1 ovarian = tested on: IGROV1 ovarian
UACC-257 melanoma = tested on: UACC-257 melanoma
CCRF-CEM leukemia = tested on: CCRF-CEM leukemia
COLO 205 colon = tested on: COLO 205 colon
DU-145 prostate = tested on: DU-145 prostate
MDA-MB-435 = tested on: MDA-MB-435
HS 578T breast = tested on: HS 578T breast
A549 NSCLC = tested on: A549 NSCLC
NCI-H460 lung = tested on: NCI-H460 lung
U251 CNS = tested on: U251 CNS
786-0 renal = tested on: 786-0 renal
KM12 colon = tested on: KM12 colon
RXF 393 renal = tested on: RXF 393 renal
HOP-62 NSCLC = tested on: HOP-62 NSCLC
SF-268 CNS = tested on: SF-268 CNS
SF-295 CNS = tested on: SF-295 CNS
NCI-H522 lung = tested on: NCI-H522 lung
HT29 colon = tested on: HT29 colon
T-47D breast = tested on: T-47D breast
SN12C renal = tested on: SN12C renal
OVCAR-8 ovarian = tested on: OVCAR-8 ovarian
CAKI-1 renal = tested on: CAKI-1 renal
HCT-116 colon = tested on: HCT-116 colon
K-562 leukemia = tested on: K-562 leukemia
SK-OV-3 ovarian = tested on: SK-OV-3 ovarian
UO-31 renal = tested on: UO-31 renal
MOLT-4 leukemia = tested on: MOLT-4 leukemia
TK-10 renal = tested on: TK-10 renal
HCT-15 colon = tested on: HCT-15 colon
OVCAR-3 ovarian = tested on: OVCAR-3 ovarian
MALME-3M melanoma = tested on: MALME-3M melanoma
MCF7 breast = tested on: MCF7 breast
ACHN renal = tested on: ACHN renal
OVCAR-5 ovarian = tested on: OVCAR-5 ovarian
OVCAR-4 ovarian = tested on: OVCAR-4 ovarian
NCI/ADR-RES ovarian = tested on: NCI/ADR-RES ovarian
MDA-MB-231 breast = tested on: MDA-MB-231 breast
M14 melanoma = tested on: M14 melanoma
PC-3 prostate = tested on: PC-3 prostate
HCC-2998 colon = tested on: HCC-2998 colon
SK-MEL-2 melanoma = tested on: SK-MEL-2 melanoma
HL-60(TB) leukemia = tested on: HL-60(TB) leukemia
SR leukemia = tested on: SR leukemia
SK-MEL-28 melanoma = tested on: SK-MEL-28 melanoma
EKVX NSCLC = tested on: EKVX NSCLC
A498 renal = tested on: A498 renal
SNB-75 CNS = tested on: SNB-75 CNS
UACC-62 melanoma = tested on: UACC-62 melanoma
SNB-19 CNS = tested on: SNB-19 CNS
SK-MEL-5 melanoma = tested on: SK-MEL-5 melanoma
BT-549 breast = tested on: BT-549 breast
NCI-H226 lung = tested on: NCI-H226 lung

Measured: TGI

O=C1CC(c2ccco2)C2(C(=O)NC(=O)NC2=O)C(c2ccco2)C1 (centres undefined)
> 75 µM: SF-539 CNS | SW-620 colon | LOX IMVI melanoma | NCI-H23 lung | RPMI-8226 leukemia | MDA-N | IGROV1 ovarian | UACC-257 melanoma | CCRF-CEM leukemia | COLO 205 colon | DU-145 prostate | MDA-MB-435 | HS 578T breast | A549 NSCLC | NCI-H460 lung | U251 CNS | 786-0 renal | KM12 colon | RXF 393 renal | HOP-62 NSCLC | SF-268 CNS | SF-295 CNS | NCI-H522 lung | HT29 colon | T-47D breast | SN12C renal | OVCAR-8 ovarian | CAKI-1 renal | HCT-116 colon | K-562 leukemia | SK-OV-3 ovarian | UO-31 renal | MOLT-4 leukemia | TK-10 renal | HCT-15 colon | OVCAR-3 ovarian | MALME-3M melanoma | MCF7 breast | ACHN renal | OVCAR-5 ovarian | OVCAR-4 ovarian | NCI/ADR-RES ovarian | MDA-MB-231 breast | M14 melanoma | PC-3 prostate | HCC-2998 colon | SK-MEL-2 melanoma | HL-60(TB) leukemia | SR leukemia | SK-MEL-28 melanoma | EKVX NSCLC | A498 renal | SNB-75 CNS | UACC-62 melanoma | SNB-19 CNS | SK-MEL-5 melanoma | BT-549 breast

CC(C)(C)OC(=O)NCCCCC(NC(=O)OCc1ccccc1)C(N)=O (centres undefined)
> 100 µM: SF-539 CNS | SW-620 colon | LOX IMVI melanoma | NCI-H23 lung | RPMI-8226 leukemia | MDA-N | IGROV1 ovarian | UACC-257 melanoma | CCRF-CEM leukemia | COLO 205 colon | NCI-H226 lung | DU-145 prostate | MDA-MB-435 | HS 578T breast | A549 NSCLC | NCI-H460 lung | U251 CNS | 786-0 renal | KM12 colon | RXF 393 renal | HOP-62 NSCLC | SF-268 CNS | SF-295 CNS | NCI-H522 lung | HT29 colon | T-47D breast | SN12C renal | OVCAR-8 ovarian | CAKI-1 renal | HCT-116 colon | K-562 leukemia | SK-OV-3 ovarian | UO-31 renal | MOLT-4 leukemia | TK-10 renal | HCT-15 colon | OVCAR-3 ovarian | MALME-3M melanoma | MCF7 breast | ACHN renal | OVCAR-5 ovarian | OVCAR-4 ovarian | NCI/ADR-RES ovarian | MDA-MB-231 breast | M14 melanoma | PC-3 prostate | HCC-2998 colon | SK-MEL-2 melanoma | HL-60(TB) leukemia | SR leukemia | SK-MEL-28 melanoma | EKVX NSCLC | SNB-75 CNS | UACC-62 melanoma | SNB-19 CNS | SK-MEL-5 melanoma | BT-549 breast
